According to US6737383B1, “Herbicidal oxadiazolidines” (priority 1999, dated 2004):

What was measured:
soybean = experiment: Test B pre/postemergence soybean; assay type: in vivo, Glycine max
In short: (§1)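 Herbicidal effect was estimated by eye on a ten-point control scale after plants spent twelve to sixteen days in a greenhouse following soil or foliar treatment. Foliar sprays targeted plants at one to four leaves; all doses were formulated in a non-phytotoxic solvent with surfactant.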

velvetleaf = experiment: Test B pre/postemergence velvetleaf; assay type: in vivo, Abutilon theophrasti
In short: as §1

rape = experiment: Test B pre/postemergence rape; assay type: in vivo, Brassica napus
In short: as §1

wheat = experiment: Test B pre/postemergence wheat; assay type: in vivo, Triticum aestivum
In short: as §1

giant foxtail = experiment: Test B pre/postemergence giant foxtail; assay type: in vivo, Setaria faberii
In short: as §1

blackgrass = experiment: Test B pre/postemergence blackgrass; assay type: in vivo, Alopecurus myosuroides
In short: as §1

cocklebur = experiment: Test B pre/postemergence cocklebur; assay type: in vivo, Xanthium strumarium
In short: as §1

pigweed = experiment: Test B pre/postemergence pigweed; assay type: in vivo, Amaranthus retroflexus
In short: as §1

surinam grass = experiment: Test B pre/postemergence surinam grass; assay type: in vivo, Brachiaria decumbens
In short: as §1

sugar beet = experiment: Test B pre/postemergence sugar beet; assay type: in vivo, Beta vulgaris
In short: as §1

crabgrass = experiment: Test B pre/postemergence crabgrass; assay type: in vivo, Digitaria sanguinalis
In short: as §1

purple nutsedge = experiment: Test B pre/postemergence purple nutsedge; assay type: in vivo, Cyperus rotundus; conditions: for Plant response rating, Nutsedge: scale of 0 to 10 where 0 is no effect and 10 is complete control
In short: as §1

bedstraw = experiment: Test B pre/postemergence bedstraw; assay type: in vivo, Galium aparine
In short: as §1

corn = experiment: Test B pre/postemergence corn; assay type: in vivo, Zea mays
In short: as §1

wild oat = experiment: Test B pre/postemergence wild oat; assay type: in vivo, Avena fatua
In short: as §1

morningglory = experiment: Test B pre/postemergence morningglory; assay type: in vivo, Ipomoea hederacea
In short: as §1

[1] = Postemergence, Rate 62 g/ha, scale of 0 to 10, 0 is no effect, 10 is complete control
[2] = Postemergence, Rate 500 g/ha, scale of 0 to 10 where 0 is no effect and 10 is complete control
[3] = Preemergence, Rate 62 g/ha, scale 0 to 10 (0 no effect, 10 complete control)
[4] = Preemergence, Rate 125 g/ha, scale 0 to 10, 0 is no effect, 10 is complete control
[5] = Preemergence, Rate 500 g/ha, scale of 0 to 10 where 0 is no effect and 10 is complete control
[6] = Rate 250 g/ha, Postemergence, scale of 0 to 10 where 0 is no effect and 10 is complete control
[7] = Postemergence, Rate 125 g/ha, scale 0 to 10, 0 is no effect, 10 is complete control

In the case of COCCOCn1c(=O)on(C(=O)N(c2ccccc2)C(C)C)c1=O [Compound 564], the “Soybean plant response rating” value (soybean; [1]) is reported as 0, the “Plant response rating, Soybean” value (soybean; [2]) is reported as 5 and the “Soybean plant response rating” value (soybean; [3]) is reported as 0. The “Soybean plant response rating” value (soybean; [4]) was 0, the “Soybean plant response rating (0 to 10 scale)” value (soybean; Preemergence, Rate 250 g/ha) was 4 and the “Soybean plant response rating” value (soybean; [5]) was 8. The “Plant response rating, Soybean” value (soybean; [6]) was 5, the “Velvetleaf plant response rating” value (velvetleaf; [1]) was 0 and the “Plant response rating, Velvetleaf” value (velvetleaf; [2]) was 3. For the same compound, the “Velvetleaf plant response rating” value (velvetleaf; [3]) was 0, the “Velvetleaf plant response rating” value (velvetleaf; [4]) was 2 and the “Velvetleaf plant response rating (0 to 10 scale)” value (velvetleaf; Preemergence, Rate 250 g/ha) was 6. For the same compound, the “Velvetleaf plant response rating” value (velvetleaf; [5]) was 8, the “Plant response rating, Velvetleaf” value (velvetleaf; [6]) was 2 and the “Rape plant response rating” value (rape; [1]) was 0. The “Rape plant response rating” value (rape; [7]) was 0, the “Plant response rating, Rape” value (rape; [2]) was 2 and the “Rape plant response rating” value (rape; [3]) was 0. The “Rape plant response rating” value (rape; [4]) was 0, the “Rape plant response rating (0 to 10 scale)” value (rape; Preemergence, Rate 250 g/ha) was 0 and the “Rape plant response rating” value (rape; [5]) was 3. The “Plant response rating, Rape” value (rape; [6]) was 2, the “Wheat plant response rating” value (wheat; [1]) was 0 and the “Plant response rating, Wheat” value (wheat; [2]) was 2. For the same compound, the “Wheat plant response rating” value (wheat; [3]) was 0, the “Wheat plant response rating” value (wheat; [4]) was 6 and the “Wheat plant response rating (0 to 10 scale)” value (wheat; Preemergence, Rate 250 g/ha) was 7. For the same compound, the “Wheat plant response rating” value (wheat; [5]) was 7, the “Giant foxtail plant response rating” value (giant foxtail; [1]) was 2 and the “Giant foxtail plant response rating” value (giant foxtail; [7]) was 3. The “Plant response rating, Giant foxtail” value (giant foxtail; [2]) was 9, the “Giant foxtail plant response rating” value (giant foxtail; [3]) was 9 and the “Giant foxtail plant response rating” value (giant foxtail; [4]) was 9. The “Giant foxtail plant response rating (0 to 10 scale)” value (giant foxtail; Preemergence, Rate 250 g/ha) was 9, the “Giant foxtail plant response rating” value (giant foxtail; [5]) was 9 and the “Plant response rating, Giant foxtail” value (giant foxtail; [6]) was 7. The “Blackgrass plant response rating” value (blackgrass; [1]) was 0, the “Blackgrass plant response rating” value (blackgrass; [7]) was 4 and the “Plant response rating, Blackgrass” value (blackgrass; [2]) was 4. The “Blackgrass plant response rating” value (blackgrass; [3]) was 0, the “Blackgrass plant response rating” value (blackgrass; [4]) was 5 and the “Blackgrass plant response rating (0 to 10 scale)” value (blackgrass; Preemergence, Rate 250 g/ha) was 5. The “Blackgrass plant response rating” value (blackgrass; [5]) was 9, the “Plant response rating, Blackgrass” value (blackgrass; [6]) was 4 and the “Cocklebur plant response rating” value (cocklebur; [1]) was 0. The “Cocklebur plant response rating” value (cocklebur; [7]) was 0, the “Plant response rating, Cocklebur” value (cocklebur; [2]) was 2 and the “Cocklebur plant response rating” value (cocklebur; [3]) was 0. For the same compound, the “Cocklebur plant response rating” value (cocklebur; [4]) was 0, the “Cocklebur plant response rating (0 to 10 scale)” value (cocklebur; Preemergence, Rate 250 g/ha) was 0 and the “Cocklebur plant response rating” value (cocklebur; [5]) was 0. For the same compound, the “Plant response rating, Cocklebur” value (cocklebur; [6]) was 0, the “Redroot pigweed plant response rating” value (pigweed; [1]) was 3 and the “Plant response rating, Redroot pigweed” value (pigweed; [2]) was 3. For the same compound, the “Redroot pigweed plant response rating” value (pigweed; [3]) was 0, the “Redroot pigweed plant response rating” value (pigweed; [4]) was 0 and the “Redroot pigweed plant response rating (0 to 10 scale)” value (pigweed; Preemergence, Rate 250 g/ha) was 3. For the same compound, the “Redroot pigweed plant response rating” value (pigweed; [5]) was 3, the “Plant response rating, Redroot pigweed” value (pigweed; [6]) was 3 and the “B. signalgrass plant response rating” value (surinam grass; [1]) was 0. The “Plant response rating, B. signalgrass” value (surinam grass; [2]) was 8, the “B. signalgrass plant response rating” value (surinam grass; [3]) was 2 and the “B. signalgrass plant response rating” value (surinam grass; [4]) was 6. For the same compound, the “B. signalgrass plant response rating (0 to 10 scale, 0 is no effect, 10 is complete control)” value (surinam grass; Preemergence, Rate 250 g/ha) was 6, the “B. signalgrass plant response rating” value (surinam grass; [5]) was 7 and the “Plant response rating, B. signalgrass” value (surinam grass; [6]) was 3. The “Sugarbeets plant response rating” value (sugar beet; [1]) was 0, the “Plant response rating, Sugarbeets” value (sugar beet; [2]) was 2 and the “Sugarbeets plant response rating” value (sugar beet; [3]) was 2. The “Sugarbeets plant response rating” value (sugar beet; [4]) was 2, the “Sugarbeets plant response rating (0 to 10 scale)” value (sugar beet; Preemergence, Rate 250 g/ha) was 3 and the “Sugarbeets plant response rating” value (sugar beet; [5]) was 3. For the same compound, the “Plant response rating, Sugarbeets” value (sugar beet; [6]) was 2, the “Crabgrass plant response rating” value (crabgrass; [1]) was 2 and the “Crabgrass plant response rating” value (crabgrass; [7]) was 3. The “Plant response rating, Crabgrass” value (crabgrass; [2]) was 9, the “Crabgrass plant response rating” value (crabgrass; [3]) was 7 and the “Crabgrass plant response rating” value (crabgrass; [4]) was 8. The “Crabgrass plant response rating (0 to 10 scale)” value (crabgrass; Preemergence, Rate 250 g/ha) was 9, the “Crabgrass plant response rating” value (crabgrass; [5]) was 9 and the “Plant response rating, Crabgrass” value (crabgrass; [6]) was 8. The “Nutsedge plant response rating” value (purple nutsedge; [1]) was 0, the “Plant response rating, Nutsedge” value (purple nutsedge; Postemergence, Rate 500 g/ha) was 0 and the “Nutsedge plant response rating” value (purple nutsedge; [3]) was 0. The “Nutsedge plant response rating” value (purple nutsedge; [4]) was 0, the “Plant response rating, Nutsedge” value (purple nutsedge; Rate 250 g/ha, Postemergence) was 0 and the “Bedstraw plant response rating” value (bedstraw; [1]) was 0. For the same compound, the “Plant response rating, Bedstraw” value (bedstraw; [2]) was 0, the “Bedstraw plant response rating” value (bedstraw; [3]) was 0 and the “Bedstraw plant response rating” value (bedstraw; [4]) was 0. For the same compound, the “Bedstraw plant response rating (0 to 10 scale)” value (bedstraw; Preemergence, Rate 250 g/ha) was 0, the “Bedstraw plant response rating” value (bedstraw; [5]) was 0 and the “Corn plant response rating” value (corn; [1]) was 0. The “Corn plant response rating” value (corn; [7]) was 0, the “Plant response rating, Corn” value (corn; [2]) was 6 and the “Corn plant response rating” value (corn; [3]) was 2. For the same compound, the “Corn plant response rating” value (corn; [4]) was 4, the “Corn plant response rating (0 to 10 scale)” value (corn; Preemergence, Rate 250 g/ha) was 4 and the “Corn plant response rating” value (corn; [5]) was 9. For the same compound, the “Plant response rating, Corn” value (corn; [6]) was 0, the “Wild oats plant response rating” value (wild oat; [1]) was 0 and the “Plant response rating, Wild oats” value (wild oat; [2]) was 2. For the same compound, the “Wild oats plant response rating” value (wild oat; [3]) was 0, the “Wild oats plant response rating” value (wild oat; [4]) was 0 and the “Wild oats plant response rating (0 to 10 scale)” value (wild oat; Preemergence, Rate 250 g/ha) was 4. For the same compound, the “Wild oats plant response rating” value (wild oat; [5]) was 7, the “Morningglory plant response rating” value (morningglory; [1]) was 5 and the “Morningglory plant response rating” value (morningglory; [7]) was 7. For the same compound, the “Plant response rating, Morningglory” value (morningglory; [2]) was 10, the “Morningglory plant response rating” value (morningglory; [3]) was 0 and the “Morningglory plant response rating” value (morningglory; [4]) was 2. The “Morningglory plant response rating (0 to 10 scale)” value (morningglory; Preemergence, Rate 250 g/ha) was 2, the “Morningglory plant response rating” value (morningglory; [5]) was 4 and the “Plant response rating, Morningglory” value (morningglory; [6]) was 10.
